The source of these data is ChEMBL document CHEMBL5291721, “A preclinical secondary pharmacology resource illuminates target-adverse drug reaction associations of marketed drugs” (Nat Commun, 2023).

In one test the target is T1, Progesterone receptor (Homo sapiens, UniProt P06401).
T1 sequence (P06401 whole entry): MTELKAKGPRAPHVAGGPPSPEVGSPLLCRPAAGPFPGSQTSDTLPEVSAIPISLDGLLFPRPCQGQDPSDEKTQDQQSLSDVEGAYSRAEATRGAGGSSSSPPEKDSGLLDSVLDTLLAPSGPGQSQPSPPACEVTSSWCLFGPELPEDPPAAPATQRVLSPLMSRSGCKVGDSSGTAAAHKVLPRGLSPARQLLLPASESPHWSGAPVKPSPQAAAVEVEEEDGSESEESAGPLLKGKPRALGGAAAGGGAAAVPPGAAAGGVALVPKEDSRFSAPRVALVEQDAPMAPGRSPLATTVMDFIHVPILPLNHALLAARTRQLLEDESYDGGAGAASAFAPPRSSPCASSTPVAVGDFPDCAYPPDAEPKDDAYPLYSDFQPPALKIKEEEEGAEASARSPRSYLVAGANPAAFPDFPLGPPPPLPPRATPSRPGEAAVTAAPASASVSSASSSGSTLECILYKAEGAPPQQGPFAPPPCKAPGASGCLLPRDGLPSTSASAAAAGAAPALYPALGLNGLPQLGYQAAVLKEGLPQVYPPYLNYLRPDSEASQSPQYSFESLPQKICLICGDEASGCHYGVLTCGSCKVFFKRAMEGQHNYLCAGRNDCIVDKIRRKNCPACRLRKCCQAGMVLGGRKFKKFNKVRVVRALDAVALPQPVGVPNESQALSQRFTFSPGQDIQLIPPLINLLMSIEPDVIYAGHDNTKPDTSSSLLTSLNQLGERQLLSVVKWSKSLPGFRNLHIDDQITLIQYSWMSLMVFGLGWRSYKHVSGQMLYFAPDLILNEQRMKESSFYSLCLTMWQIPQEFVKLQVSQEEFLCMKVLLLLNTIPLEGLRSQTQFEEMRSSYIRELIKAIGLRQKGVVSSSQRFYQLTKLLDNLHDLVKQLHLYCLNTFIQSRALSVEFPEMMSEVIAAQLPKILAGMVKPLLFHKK

The target of test [1] is T2, Gastrin/cholecystokinin type B receptor (Homo sapiens, UniProt P32239).
T2 sequence (P32239 whole entry): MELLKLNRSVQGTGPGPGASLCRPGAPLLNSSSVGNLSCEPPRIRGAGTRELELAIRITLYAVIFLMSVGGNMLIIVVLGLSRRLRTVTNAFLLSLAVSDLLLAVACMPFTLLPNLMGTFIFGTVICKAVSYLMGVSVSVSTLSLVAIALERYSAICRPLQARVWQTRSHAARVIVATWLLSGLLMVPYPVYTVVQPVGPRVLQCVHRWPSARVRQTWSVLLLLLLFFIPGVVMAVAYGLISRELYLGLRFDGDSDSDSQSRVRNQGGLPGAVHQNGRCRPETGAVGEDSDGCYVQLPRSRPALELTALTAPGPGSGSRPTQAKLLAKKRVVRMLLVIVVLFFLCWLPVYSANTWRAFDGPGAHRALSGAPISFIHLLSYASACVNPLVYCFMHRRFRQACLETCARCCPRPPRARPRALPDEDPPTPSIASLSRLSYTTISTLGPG

Test [2] addresses 5-hydroxytryptamine receptor 2B (Homo sapiens, UniProt P41595). It is filed as functional, cell-based.
The target of another test is T3, Endothelin-1 receptor (Homo sapiens, UniProt P25101).
T3 sequence (P25101 whole entry): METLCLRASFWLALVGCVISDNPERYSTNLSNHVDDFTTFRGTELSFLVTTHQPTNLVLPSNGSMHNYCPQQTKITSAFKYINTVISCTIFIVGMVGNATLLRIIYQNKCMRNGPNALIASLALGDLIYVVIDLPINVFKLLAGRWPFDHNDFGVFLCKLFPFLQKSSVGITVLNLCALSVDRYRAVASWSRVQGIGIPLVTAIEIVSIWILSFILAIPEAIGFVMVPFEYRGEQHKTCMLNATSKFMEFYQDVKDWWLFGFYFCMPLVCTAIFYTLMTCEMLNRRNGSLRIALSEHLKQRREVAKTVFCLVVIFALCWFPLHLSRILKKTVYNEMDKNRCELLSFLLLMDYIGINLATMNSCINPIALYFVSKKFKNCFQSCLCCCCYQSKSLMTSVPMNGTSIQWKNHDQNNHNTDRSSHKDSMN

The target in test [3] is Beta-1 adrenergic receptor (Homo sapiens, UniProt P08588). It is filed as functional.
For a further test, the target named is Vasopressin V1a receptor (Homo sapiens, UniProt P37288).
Test [4] addresses T4, Muscarinic acetylcholine receptor M1 (Homo sapiens, UniProt P11229).
T4 sequence (P11229 whole entry): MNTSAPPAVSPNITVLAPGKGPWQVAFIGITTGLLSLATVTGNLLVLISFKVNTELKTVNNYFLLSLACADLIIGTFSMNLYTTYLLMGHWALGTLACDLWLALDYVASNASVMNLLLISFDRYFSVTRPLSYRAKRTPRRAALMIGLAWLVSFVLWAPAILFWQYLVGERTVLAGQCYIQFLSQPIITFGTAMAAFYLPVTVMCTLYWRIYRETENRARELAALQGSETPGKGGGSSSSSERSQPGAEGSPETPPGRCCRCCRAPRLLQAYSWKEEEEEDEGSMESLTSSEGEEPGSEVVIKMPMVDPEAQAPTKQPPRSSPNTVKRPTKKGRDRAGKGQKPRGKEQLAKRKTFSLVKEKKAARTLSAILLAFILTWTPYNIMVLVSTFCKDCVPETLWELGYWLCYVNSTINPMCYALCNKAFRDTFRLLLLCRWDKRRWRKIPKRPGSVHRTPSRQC
It is filed as functional.

Test [5] deals with Gamma-aminobutyric acid receptor subunit alpha-1/alpha-2/beta-2/gamma-2 (Homo sapiens, UniProt P14867+P18507+P47869+P47870). Type of test: protein-complex assay.
Test [6] deals with Sodium-dependent serotonin transporter (Homo sapiens, UniProt P31645).

Molecules are shown by their SMILES. Where only a bound is given, the exact number is not on record here.
Further: assay procedure not described here.

Chain of Gamma-aminobutyric acid receptor subunit alpha-1/alpha-2/beta-2/gamma-2 (P14867 whole entry): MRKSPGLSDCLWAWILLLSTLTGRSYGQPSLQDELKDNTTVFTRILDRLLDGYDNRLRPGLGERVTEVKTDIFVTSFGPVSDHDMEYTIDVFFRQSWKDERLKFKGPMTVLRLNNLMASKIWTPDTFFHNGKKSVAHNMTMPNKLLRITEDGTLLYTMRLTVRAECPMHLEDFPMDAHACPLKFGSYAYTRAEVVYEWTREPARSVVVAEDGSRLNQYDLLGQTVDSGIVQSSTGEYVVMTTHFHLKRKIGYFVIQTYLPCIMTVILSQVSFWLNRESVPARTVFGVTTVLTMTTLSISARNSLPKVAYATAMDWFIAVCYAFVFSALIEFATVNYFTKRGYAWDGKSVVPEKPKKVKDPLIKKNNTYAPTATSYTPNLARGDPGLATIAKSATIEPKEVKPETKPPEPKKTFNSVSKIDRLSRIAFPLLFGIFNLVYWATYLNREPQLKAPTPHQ
Chain of Gamma-aminobutyric acid receptor subunit alpha-1/alpha-2/beta-2/gamma-2 (P47870 whole entry): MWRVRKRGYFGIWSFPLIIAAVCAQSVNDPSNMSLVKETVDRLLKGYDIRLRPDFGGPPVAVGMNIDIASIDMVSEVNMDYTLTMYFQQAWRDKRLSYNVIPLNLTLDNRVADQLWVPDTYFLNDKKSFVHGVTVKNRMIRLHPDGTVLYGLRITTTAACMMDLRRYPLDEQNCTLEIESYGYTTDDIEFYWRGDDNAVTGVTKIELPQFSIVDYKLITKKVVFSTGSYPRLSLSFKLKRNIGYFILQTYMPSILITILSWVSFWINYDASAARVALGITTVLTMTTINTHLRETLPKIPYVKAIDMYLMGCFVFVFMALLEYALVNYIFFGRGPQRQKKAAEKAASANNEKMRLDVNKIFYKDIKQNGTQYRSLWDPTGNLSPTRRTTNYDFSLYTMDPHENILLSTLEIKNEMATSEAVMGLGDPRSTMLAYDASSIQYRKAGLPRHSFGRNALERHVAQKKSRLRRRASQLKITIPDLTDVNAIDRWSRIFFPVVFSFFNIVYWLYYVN
Chain of Gamma-aminobutyric acid receptor subunit alpha-1/alpha-2/beta-2/gamma-2 (P18507 whole entry): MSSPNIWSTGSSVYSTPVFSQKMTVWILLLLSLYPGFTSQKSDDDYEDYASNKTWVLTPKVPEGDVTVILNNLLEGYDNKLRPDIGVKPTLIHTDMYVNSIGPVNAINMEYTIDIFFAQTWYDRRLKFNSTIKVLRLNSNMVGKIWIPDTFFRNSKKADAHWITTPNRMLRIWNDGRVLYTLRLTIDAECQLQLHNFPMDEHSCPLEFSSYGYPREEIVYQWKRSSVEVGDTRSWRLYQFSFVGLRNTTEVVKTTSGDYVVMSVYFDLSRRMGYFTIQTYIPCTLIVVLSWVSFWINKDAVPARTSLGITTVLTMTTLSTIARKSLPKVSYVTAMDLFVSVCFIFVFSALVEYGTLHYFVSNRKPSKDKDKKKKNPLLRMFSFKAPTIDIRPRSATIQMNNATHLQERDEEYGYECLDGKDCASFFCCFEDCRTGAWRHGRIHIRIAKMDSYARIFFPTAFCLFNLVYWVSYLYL
Chain of Gamma-aminobutyric acid receptor subunit alpha-1/alpha-2/beta-2/gamma-2 (P47869 whole entry): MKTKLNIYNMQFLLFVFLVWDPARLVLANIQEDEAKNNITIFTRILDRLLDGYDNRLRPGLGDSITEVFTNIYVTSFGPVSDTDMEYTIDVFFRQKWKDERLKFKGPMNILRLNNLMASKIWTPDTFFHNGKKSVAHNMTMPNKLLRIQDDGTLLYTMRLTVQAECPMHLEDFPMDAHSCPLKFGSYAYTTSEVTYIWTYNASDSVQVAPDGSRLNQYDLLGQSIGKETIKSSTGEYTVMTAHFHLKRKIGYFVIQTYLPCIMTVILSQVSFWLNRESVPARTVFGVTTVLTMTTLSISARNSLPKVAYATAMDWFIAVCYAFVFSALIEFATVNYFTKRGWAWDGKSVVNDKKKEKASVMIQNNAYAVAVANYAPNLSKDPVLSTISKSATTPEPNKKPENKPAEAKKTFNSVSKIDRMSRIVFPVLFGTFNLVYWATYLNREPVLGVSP
Chain of Beta-1 adrenergic receptor (P08588 whole entry): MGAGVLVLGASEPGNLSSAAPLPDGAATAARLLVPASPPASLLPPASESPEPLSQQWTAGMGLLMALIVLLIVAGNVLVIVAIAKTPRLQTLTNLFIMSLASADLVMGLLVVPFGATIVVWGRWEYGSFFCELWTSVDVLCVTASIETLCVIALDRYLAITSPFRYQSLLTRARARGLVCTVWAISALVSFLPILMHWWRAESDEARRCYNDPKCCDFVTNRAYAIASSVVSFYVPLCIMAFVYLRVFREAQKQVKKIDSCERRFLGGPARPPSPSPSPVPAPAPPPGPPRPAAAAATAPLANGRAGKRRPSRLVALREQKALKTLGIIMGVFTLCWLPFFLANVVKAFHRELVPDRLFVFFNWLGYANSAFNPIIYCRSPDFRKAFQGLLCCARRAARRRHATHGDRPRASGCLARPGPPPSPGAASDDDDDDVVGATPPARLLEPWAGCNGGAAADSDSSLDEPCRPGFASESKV
Chain of 5-hydroxytryptamine receptor 2B (P41595 whole entry): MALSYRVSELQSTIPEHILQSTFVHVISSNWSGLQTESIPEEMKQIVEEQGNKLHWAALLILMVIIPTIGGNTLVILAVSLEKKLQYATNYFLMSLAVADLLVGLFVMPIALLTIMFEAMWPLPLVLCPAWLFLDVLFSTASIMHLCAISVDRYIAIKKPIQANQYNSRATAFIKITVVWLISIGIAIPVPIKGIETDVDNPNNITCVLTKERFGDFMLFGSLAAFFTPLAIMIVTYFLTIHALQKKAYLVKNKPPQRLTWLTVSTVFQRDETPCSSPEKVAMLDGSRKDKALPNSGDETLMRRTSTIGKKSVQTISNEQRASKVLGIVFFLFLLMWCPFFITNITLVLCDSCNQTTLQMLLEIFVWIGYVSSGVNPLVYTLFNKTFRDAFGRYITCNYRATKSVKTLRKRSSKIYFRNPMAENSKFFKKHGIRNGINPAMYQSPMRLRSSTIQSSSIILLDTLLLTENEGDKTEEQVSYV
Chain of Vasopressin V1a receptor (P37288 whole entry): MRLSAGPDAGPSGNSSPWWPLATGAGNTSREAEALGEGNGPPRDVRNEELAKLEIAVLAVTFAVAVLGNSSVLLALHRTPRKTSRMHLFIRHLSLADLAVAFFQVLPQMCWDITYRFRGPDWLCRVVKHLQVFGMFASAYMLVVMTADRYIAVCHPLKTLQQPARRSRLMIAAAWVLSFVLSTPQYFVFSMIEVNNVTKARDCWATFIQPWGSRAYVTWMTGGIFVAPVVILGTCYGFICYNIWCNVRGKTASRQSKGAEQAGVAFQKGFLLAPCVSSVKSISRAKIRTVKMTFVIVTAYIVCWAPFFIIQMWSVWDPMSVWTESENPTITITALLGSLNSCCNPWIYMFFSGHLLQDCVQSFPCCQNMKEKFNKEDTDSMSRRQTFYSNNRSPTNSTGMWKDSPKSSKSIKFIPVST
Chain of Sodium-dependent serotonin transporter (P31645 whole entry): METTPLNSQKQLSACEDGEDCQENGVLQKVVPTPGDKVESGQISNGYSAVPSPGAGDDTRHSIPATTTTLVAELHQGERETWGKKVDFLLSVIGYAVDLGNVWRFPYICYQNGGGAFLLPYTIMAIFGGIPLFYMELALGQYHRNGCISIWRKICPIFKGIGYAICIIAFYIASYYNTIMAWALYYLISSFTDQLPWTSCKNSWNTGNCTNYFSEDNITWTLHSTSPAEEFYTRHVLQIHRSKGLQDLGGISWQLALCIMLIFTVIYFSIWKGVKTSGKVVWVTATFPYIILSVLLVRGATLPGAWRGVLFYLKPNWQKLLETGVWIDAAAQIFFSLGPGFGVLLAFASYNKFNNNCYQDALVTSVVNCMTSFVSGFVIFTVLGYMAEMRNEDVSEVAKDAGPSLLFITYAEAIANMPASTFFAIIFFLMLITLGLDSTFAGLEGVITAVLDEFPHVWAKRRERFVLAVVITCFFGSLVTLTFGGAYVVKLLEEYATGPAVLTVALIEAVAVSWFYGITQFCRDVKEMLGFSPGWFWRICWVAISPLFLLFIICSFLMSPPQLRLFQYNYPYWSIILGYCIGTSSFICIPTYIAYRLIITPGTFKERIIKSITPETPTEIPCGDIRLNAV

As for `CC(C(=O)O)c1ccc(N2CC=CC2)c(Cl)c1` (configuration not stated) [PIRPROFEN], the AC50 (usually the concentration at which the activity in the assay is half-maximal) is greater than 30 µM on Progesterone receptor; greater than 30 µM in [1]; greater than 30 µM in [2]; greater than 30 µM on Endothelin-1 receptor; greater than 10 µM in test [3]; greater than 10 µM on Vasopressin V1a receptor. Also, the AC50 was greater than 10 µM in [4], greater than 30 µM in test [5] and greater than 30 µM in test [6].

`Oc1ncnc2[nH]ncc12` [ALLOPURINOL]: the AC50 at Progesterone receptor is greater than 30 µM; in [1], greater than 30 µM; in test [2] it was greater than 30 µM; at Endothelin-1 receptor, greater than 30 µM; in test [3] it was greater than 10 µM; on Vasopressin V1a receptor, greater than 10 µM. Further, in test [5], the AC50 is greater than 30 µM.

As for `CCC(=O)c1c(O)cc(O)cc1O` [FLOPROPIONE], the AC50 (at Progesterone receptor; in test [2]; in test [5]; in test [6]) was greater than 30 µM throughout.

As for `CCOC(=O)N[C@@H]1CC[C@@H]2[C@@H](C1)C[C@H]1C(=O)O[C@H](C)[C@H]1[C@H]2/C=C/c1ccc(-c2cccc(F)c2)cn1` [VORAPAXAR], the half-maximal activity concentration (AC50) is greater than 30 µM on Progesterone receptor, greater than 30 µM in [2], greater than 30 µM in [5] and greater than 10 µM in test [6].

Turning to `CC(=O)Oc1c(C)cc(OCC(O)CNC(C)C)c(C)c1C` (configuration not stated) [METIPRANOLOL], the AC50 (at Progesterone receptor; in [2]; in [5]; in [6]) was greater than 30 µM throughout.

For `O=C1[C@H](CC[C@H](O)c2ccc(F)cc2)[C@@H](c2ccc(O)cc2)N1c1ccc(F)cc1` [EZETIMIBE], the AC50 is 24.6 µM on Progesterone receptor, greater than 30 µM in test [2], greater than 10 µM in test [5] and greater than 30 µM in test [6].

Regarding `CCO/N=C(\C(=O)N[C@@H]1C(=O)N2C(C(=O)[O-])=C(Sc3nc(-c4cc[n+](C)cc4)cs3)CS[C@H]12)c1nsc(N)n1` [CEFTAROLINE], the half-maximal activity concentration (AC50) (at Progesterone receptor; in test [2]; in [5]; in test [6]) was greater than 30 µM in each case.

Take `C[N+](C)(C)CCCCCCCCCC[N+](C)(C)C` [DECAMETHONIUM]: the AC50 in [2], in test [5] and in test [6] was greater than 30 µM throughout.

Regarding `CC(C)C(=O)Nc1ccc([N+](=O)[O-])c(C(F)(F)F)c1` [FLUTAMIDE], the AC50 at Progesterone receptor is greater than 30 µM; in [1], greater than 30 µM; in test [2] it was greater than 30 µM; in test [3] it was greater than 10 µM; on Vasopressin V1a receptor it was greater than 30 µM; in [5] it was greater than 10 µM.

On to `CN(CCOc1ccc(NS(C)(=O)=O)cc1)CCc1ccc(NS(C)(=O)=O)cc1` [DOFETILIDE], for which the AC50 is greater than 30 µM on Progesterone receptor; greater than 30 µM in [1]; greater than 30 µM in test [2]; greater than 30 µM at Endothelin-1 receptor; greater than 10 µM in test [3]; greater than 10 µM on Vasopressin V1a receptor. The AC50 in [4] was greater than 10 µM; in test [5], greater than 30 µM; in test [6], greater than 30 µM.

Turning to `CC(C)OC(=O)[C@H](C)N[P@](=O)(OC[C@H]1O[C@@H](n2ccc(=O)[nH]c2=O)[C@](C)(F)[C@@H]1O)Oc1ccccc1` [SOFOSBUVIR], the AC50 (on Progesterone receptor; in test [2]; in test [5]; in test [6]) was greater than 30 µM throughout.

Regarding `NC(=O)c1cnccn1` [PYRAZINAMIDE], the AC50 (on Progesterone receptor; in [1]; in [2]; at Endothelin-1 receptor; in test [3]; at Vasopressin V1a receptor) was greater than 30 µM in each case. In test [5], this compound showed an AC50 greater than 30 µM.

With `Nc1nc(N)c2nc(-c3ccccc3)c(N)nc2n1`, the AC50 (on Progesterone receptor; in test [1]; in test [2]; at Endothelin-1 receptor; in [3]; at Vasopressin V1a receptor) was greater than 30 µM each time. The compound further came in with a concentration at half-maximal activity (AC50) in test [5] greater than 30 µM.

Regarding `COc1cc2c(cc1OC)C(=O)C(CC1CCN(Cc3ccccc3)CC1)C2` (configuration not stated) [DONEPEZIL], the concentration at half-maximal activity (AC50) at Progesterone receptor is greater than 30 µM; in [1], greater than 30 µM; on Endothelin-1 receptor it was greater than 30 µM; in test [3], greater than 10 µM; on Vasopressin V1a receptor it was greater than 30 µM; in test [4], 8.2 µM. For the same compound, the half-maximal activity concentration (AC50) in test [5] and in [6] was greater than 30 µM throughout.

In the case of `CN(C)C(=O)Oc1ccc[n+](C)c1` [PYRIDOSTIGMINE], the half-maximal activity concentration (AC50) (at Progesterone receptor; in test [2]; in [5]; in [6]) was greater than 30 µM each time.

As to `O=C(COc1ccc(Cl)cc1)N1CCN(Cc2ccc3c(c2)OCO3)CC1` [FIPEXIDE], the AC50 on Progesterone receptor was greater than 30 µM; in [2], greater than 30 µM; in test [5] it was greater than 30 µM; in test [6], 29.2 µM.

With `CC(N/C(=N\C#N)Nc1ccncc1)C(C)(C)C` (configuration not stated) [PINACIDIL ANHYDROUS], the half-maximal activity concentration (AC50) (at Progesterone receptor; in [2]; in test [5]; in test [6]) was greater than 30 µM in each case.

As to `CCOC(=O)c1ccc(O)cc1` [ETHYLPARABEN], the concentration at half-maximal activity (AC50) (at Progesterone receptor; in test [2]; in test [5]; in test [6]) was greater than 30 µM each time.

Consider `CC1(C)O[C@@H]2C[C@H]3[C@@H]4C[C@H](F)C5=CC(=O)CC[C@]5(C)[C@H]4[C@@H](O)C[C@]3(C)[C@]2(C(=O)CO)O1` [FLURANDRENOLIDE], for which the AC50 was 0.0666 µM on Progesterone receptor, greater than 30 µM in test [2] and greater than 30 µM in [5].

`C[N+]1(C)[C@@H]2C[C@@H](OC(=O)[C@H](CO)c3ccccc3)C[C@H]1[C@@H]1O[C@@H]12` [METHSCOPOLAMINE]: the concentration at half-maximal activity (AC50) (on Progesterone receptor; in [2]; in test [5]) was greater than 30 µM in each case.
